Measured values taken from patent US20150237857A1, “ANTIBACTERIAL INHIBITORS” (MCMASTER UNIVERSITY, priority 2012, published 2015).
Converted amounts (≈) assume the structure as drawn. “Also recorded” adds a separate entry of the source. Where two headings read alike, the source gives them in different places.

Key:
E. coli MG1655 [1] = test: Metabolic suppression profiling (ChemArray); assay type: cell-based
Staphylococcus aureus = test: Activity against other organisms; assay type: cell-based
Experimental: (§1) The activity of MAC13772 was tested against a number of organisms in addition to Escherichia coli using methods similar to those described in Example 2.

Acinetobacter baumannii = test: Activity against other organisms; assay type: cell-based
Experimental: as §1

Salmonella typhimurium = test: Activity against other organisms; assay type: cell-based
Experimental: as §1

Bacillus subtilis = test: Activity against other organisms; assay type: cell-based
Experimental: as §1

[2] = test system: Mycobacterium tuberculosis; test: Activity against other organisms; assay type: cell-based
Experimental: as §1

Klebsiella pneumonia = test: Activity against other organisms; assay type: cell-based
Experimental: as §1

Mycobacteria smegmatis = test: MIC against Mycobacteria smegmatis in absence and presence of biotin; assay type: cell-based
recombinant E. coli BioA = recombinant E. coli BioA (Escherichia coli, UniProt P12995); test: BioA inhibition through a feeding assay of a bioA auxotroph; assay type: biochemical
Experimental: To determine if the step catalyzed by BioA was the target of this inhibitor, the inhibitory activity of MAC-0013772 against recombinant E. coli BioA was assayed through a feeding assay of a bioA auxotroph.

BioA = BioA (Escherichia coli, UniProt P12995); test: UV-visible spectra of BioA titrated with inhibitor; assay type: binding, E. coli
Experimental: To further determine if the inhibition of BioA by MAC13772 is mediated through the interaction of the hydrazine moiety in the compound with PLP in the active site of the enzyme, the UV-visible spectra of BioA was assessed when titrated with the inhibitor.

E. coli MG1655 [3] = test: Minimum inhibitory concentration (MIC) determination; conditions: for MIC: Escherichia coli; for effect of intermediates of biotin biosynthesis on inhibitory activity (in words): KAPA, DAPA, DTB, biotin in media; for Fold suppression: MIC with supplement / MIC without
Experimental: The MIC values were determined in liquid minimal media and minimal media supplemented with amino acids, vitamins and nucleobases.
A single colony of E. coli MG1655 was grown overnight in 5 ml of M9 minimal media. The saturated culture was diluted 1/50 in fresh minimal media and allowed to grow until the OD600 reached ˜0.4. […] After mixing of the bacterial culture with the compounds, the OD600 of the plates was read using Envision to account for background absorbance. The plates were then incubated in a 37° C. stationary incubator for 16 hours before measuring their OD600. After subtracting any background absorbance contributed by colored or precipitated compounds, the MIC was defined as the lowest concentration of antibiotic that inhibits visible growth.

[4] = test system: E. coli wild-type, ΔltaEΔtdh and ΔltaEΔtdhΔkbl strains
[5] = biological target: T1, recombinant PabA, PabB and PabC (Escherichia coli, UniProt P00903+P05041+P28305); test: biochemical; parameters: species or system E. coli
T1 construct: poly-histidine (pDEST17) (N); made in house; host or cells: E. coli BL21AI (pDEST17, arabinose induction)
Experimental: Enzyme assays were conducted in triplicate at room temperature with 25 nM of PabA and PabB, 50 nM of PabC, 50 mM Tris-HCl (pH 7.5), 20 μM PLP, 1 mM L-glutamine, 40 μM chorismate and the indicated concentrations of MAC-173979. The inhibition assays were initiated by addition of a mixture of the three enzymes and quenched with an equal volume of freshly prepared 8M urea. The reaction progress curves were monitored every 10 minutes for 60 minutes and determined by a stopped HPLC-assay that allowed for the quantification of the conversion of chorismate to PABA. The two compounds were separated on a C18 reverse phase column (Nova-Pak C18, 4 μm, 3.9×150 mm, Waters) and eluted isocratically with 5% acetic acid in double distilled H2O. The analytes were visualized by UV absorbance at 275 nm and identified by comparing their retention times and UV absorption spectra to authentic standards. The progress curves were plotted to the rate equation of slow-binding inhibition: […]
using Sigma Plot 12.0 (SPSS, Inc., Chicago, Ill.), where v0 and vs are the initial and final steady-state reaction velocities, respectively, t is the time and kobs is the apparent first order rate constant for the interconversion between the initial and steady-state rates.
In order to directly test the biochemical activity of MAC-0173979 on PABA synthesis, an HPLC-based one-pot enzyme assay using recombinant PabA, PabB and PabC was set up and the formation of PABA was monitored by measuring its absorbance at 275 nm.
MAC173979 and an analog lacking the Michael acceptor (0-1000 μM) were each incubated with the PABA enzymes for 30 minutes prior to substrate addition. Reactions were quenched after 30 minutes with 8 M urea and analyzed by HPLC.

T1 sequence (P00903 whole entry): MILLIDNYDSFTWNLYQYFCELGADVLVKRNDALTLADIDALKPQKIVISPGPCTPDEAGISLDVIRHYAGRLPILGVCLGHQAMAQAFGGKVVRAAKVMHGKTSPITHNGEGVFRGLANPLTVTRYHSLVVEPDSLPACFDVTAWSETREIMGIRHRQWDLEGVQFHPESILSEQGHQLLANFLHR
T1 sequence (P05041 whole entry): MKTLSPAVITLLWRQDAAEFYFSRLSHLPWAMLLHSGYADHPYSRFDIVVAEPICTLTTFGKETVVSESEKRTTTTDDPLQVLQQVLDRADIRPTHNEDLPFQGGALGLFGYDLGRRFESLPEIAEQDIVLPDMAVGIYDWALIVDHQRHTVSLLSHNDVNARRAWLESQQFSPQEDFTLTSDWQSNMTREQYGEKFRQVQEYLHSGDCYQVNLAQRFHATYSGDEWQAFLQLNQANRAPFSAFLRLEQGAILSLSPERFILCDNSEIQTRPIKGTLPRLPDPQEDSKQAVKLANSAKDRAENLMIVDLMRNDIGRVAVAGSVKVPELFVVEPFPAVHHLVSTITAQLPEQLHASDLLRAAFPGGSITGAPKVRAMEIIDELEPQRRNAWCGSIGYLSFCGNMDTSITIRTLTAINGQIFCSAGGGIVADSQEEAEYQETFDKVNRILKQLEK
T1 sequence (P28305 whole entry): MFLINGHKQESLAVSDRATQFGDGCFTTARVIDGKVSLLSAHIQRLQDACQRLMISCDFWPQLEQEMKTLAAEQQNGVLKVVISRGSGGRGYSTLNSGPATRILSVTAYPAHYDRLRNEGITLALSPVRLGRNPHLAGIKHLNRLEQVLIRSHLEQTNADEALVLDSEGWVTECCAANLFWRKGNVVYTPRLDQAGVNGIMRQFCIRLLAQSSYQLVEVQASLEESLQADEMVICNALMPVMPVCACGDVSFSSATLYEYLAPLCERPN
BioA, sequence (P12995 whole entry): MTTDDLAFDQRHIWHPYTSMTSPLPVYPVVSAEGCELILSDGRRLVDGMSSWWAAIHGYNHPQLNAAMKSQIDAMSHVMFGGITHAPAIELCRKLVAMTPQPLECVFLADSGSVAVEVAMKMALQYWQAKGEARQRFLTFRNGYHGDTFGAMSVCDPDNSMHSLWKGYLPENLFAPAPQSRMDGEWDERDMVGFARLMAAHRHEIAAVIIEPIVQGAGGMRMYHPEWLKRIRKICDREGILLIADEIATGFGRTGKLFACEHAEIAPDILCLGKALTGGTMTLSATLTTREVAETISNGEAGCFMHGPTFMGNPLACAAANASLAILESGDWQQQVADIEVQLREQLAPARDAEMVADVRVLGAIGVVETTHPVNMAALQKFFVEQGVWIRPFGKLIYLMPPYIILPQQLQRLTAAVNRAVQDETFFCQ
recombinant E. coli BioA, sequence (P12995 whole entry): as above

With `NNC(=O)CSc1ccccc1[N+](=O)[O-]` [MAC13772, 2-(2-nitrophenylthio) acetohydrazide] the “suppression of growth inhibitory activity by biotin” value (E. coli MG1655 [1]; biotin in the growth media) was “uniquely suppressed by biotin”, the antibacterial activity (Staphylococcus aureus) was “active” and the antibacterial activity (Acinetobacter baumannii) was “active”. The antibacterial activity (Salmonella typhimurium) was “active”, the antibacterial activity (Bacillus subtilis) was “active” and the antibacterial activity [2] was “active”. The antibacterial activity (Klebsiella pneumonia) was “active”, the MIC (Mycobacteria smegmatis; absence of biotin, read-out: MIC −bio) was 4 µg/mL and the MIC (Mycobacteria smegmatis; presence of 2 nM of biotin, read-out: MIC +bio) was greater than 256 µg/mL. For the same compound, the IC50 (recombinant E. coli BioA) was roughly 0.25 µM, the “stoichiometry of protein-ligand interaction (molar ratio plot)” value (BioA; [inhibitor]/[BioA]) was “stoichiometric” and the “λmax of PLP-bound BioA after interaction with inhibitor” value (BioA; shift from 420 nm (internal aldimine) to PLP-inhibitor adduct) was 393 nm. The MIC (E. coli MG1655 [3]; MG1655, read-out: MIC −bio, absence of biotin) was 8 µg/mL (≈ 35.2 µM), the MIC (E. coli MG1655 [3]; MG1655, supplement: AA + VIT + NUC) was greater than 256 µg/mL and the MIC (E. coli MG1655 [3]; MG1655, supplement: BIOTIN) was greater than 256 µg/mL. It also gave an MIC (E. coli MG1655 [3]; MG1655, supplement: DAPA) greater than 256 µg/mL, an MIC (E. coli MG1655 [3]; MG1655, supplement: DTB) greater than 256 µg/mL and an MIC (E. coli MG1655 [3]; MG1655, supplement: KAPA) of 8 µg/mL (≈ 35.2 µM). The “effect of intermediates of biotin biosynthesis on inhibitory activity (in words)” value (E. coli MG1655 [3]; listed as MAC-0013372) was “KAPA had no effect”, the “effect of intermediates of biotin biosynthesis on inhibitory activity (in words)” value (E. coli MG1655 [3]; listed as MAC-0013772) was “fully reversed by DAPA, DTB and biotin” and the Fold suppression (E. coli MG1655 [3]; supplement: AA + VIT + NUC) was 32. The Fold suppression (E. coli MG1655 [3]; supplement: BIOTIN) was 32, the Fold suppression (E. coli MG1655 [3]; supplement: DAPA) was 32 and the Fold suppression (E. coli MG1655 [3]; supplement: DTB) was 32. It also gave a Fold suppression (E. coli MG1655 [3]; supplement: KAPA) of 1.
`COc1ccc(C(=O)CCN(C)C)cc1` [MAC-0168425, 3-(dimethylamino)-1-(4-methoxyphenyl)propan-1-one] was tested, and the “suppression of growth inhibitory activity by L-serine” value (E. coli MG1655 [1]; 4× MIC in M9 minimal media, L-serine) was “not suppressed”, the “suppression of growth inhibitory activity by L-threonine” value (E. coli MG1655 [1]; 4× MIC in M9 minimal media, L-threonine) was “partially suppressed” and the “suppression of growth inhibitory activity by glycine” value (E. coli MG1655 [1]; 4× MIC in M9 minimal media, glycine) was “strongly suppressed”. The “fold shift in MIC” value ([4]; wild-type strain, 40-640 μg/ml L-threonine) was 4-8 fold, the “fold shift in MIC” value ([4]; ΔltaEΔtdh double deletion strain, 320-640 μg/ml L-threonine) was 2 fold and the “suppression of activity by L-threonine” value ([4]; ΔltaEΔtdhΔkbl triple deletion mutant) was “completely lost”.
`O=C(C=C(Cl)Cl)c1cccc([N+](=O)[O-])c1` [MAC-0173979, 3,3-dichloro-1-(3-nitrophenyl)prop-2-en-1-one] was tested, and the “suppression of growth inhibitory activity by p-aminobenzoic acid (PABA)” value (E. coli MG1655 [1]; 4× MIC in M9 minimal media, PABA in growth media) was “suppressed; also recorded: fully reversed”, the “suppression of growth inhibitory activity by methionine” value (E. coli MG1655 [1]; 4× MIC in M9 minimal media, methionine in growth media) was “to a certain extent; also recorded: fully reversed” and the “fold suppression of MIC on addition of PABA” value (E. coli MG1655 [3]; PABA added to the growth media) was 16 fold. For the same compound, the IC50 [5] was 30 ± 2 µM, the Ki [5] was 7.3 ± 1.3 µM and the “mechanism of inhibition of PABA synthesis” value ([5]; progress curves, kobs plot) was “irreversible time-dependent inhibitor”.
Compound `O=C(CC(Cl)Cl)c1cccc([N+](=O)[O-])c1` [analog lacking the Michael acceptor, 3,3-dichloro-1-(3-nitrophenyl)propan-1-one] has an IC50 [5] of 60 ± 7 µM.
